Assay results reported in US20260355196A1, “INHIBITORS AND DEGRADERS OF PIP4K PROTEIN” (Larkspur Biosciences, Inc., priority 2023, published 2026).

Target: T1, PIP4K2C (Homo sapiens, UniProt Q8TBX8)
T1 sequence (Q8TBX8 1-421): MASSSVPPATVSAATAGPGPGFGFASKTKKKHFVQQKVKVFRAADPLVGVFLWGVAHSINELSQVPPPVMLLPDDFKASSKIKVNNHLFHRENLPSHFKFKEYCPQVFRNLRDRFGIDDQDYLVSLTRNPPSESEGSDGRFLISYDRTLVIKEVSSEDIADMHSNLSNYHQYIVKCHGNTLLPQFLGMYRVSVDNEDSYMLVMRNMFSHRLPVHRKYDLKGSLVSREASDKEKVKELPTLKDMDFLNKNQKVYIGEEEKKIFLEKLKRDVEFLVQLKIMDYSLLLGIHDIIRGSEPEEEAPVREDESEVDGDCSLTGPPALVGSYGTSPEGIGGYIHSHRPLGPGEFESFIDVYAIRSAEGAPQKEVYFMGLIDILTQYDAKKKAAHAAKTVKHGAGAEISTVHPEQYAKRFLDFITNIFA
Assay: HiBiT PIP4K2C degradation assay in MOLT-4 cells (endogenous PIP4K2C C-terminally tagged with HiBiT)
Type: cell-based
Parameters: untagged in primary human PBMCs and monocyte-derived dendritic cells
Settings: 6 hours of incubation time, rather than 24 hours; MOLT-4, top concentration 10 micromolar; read-out: HiBIT-degradation MOLT4 PIP4k2C DC50 (6 hours, marked *)
Outline: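 Endogenous PIP4K2C was C-terminally HiBiT-tagged by CRISPR-Cas9 in MOLT-4 cells, which were treated with a 10-point, 3-fold dilution series from 10 micromolar in duplicate for 24 or 6 hours at 37 C. Remaining protein was read by HiBiT lytic luminescence, and DC50 came from a Hill fit.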

Structure (SMILES) | DC50 [nM]
O=C1CCC(Nc2ccc(N3CCC(N4CCC(C(=O)N[C@H]5CC[C@H](Nc6ncc(F)c(-c7cccc(N8CCCOC8=O)c7)n6)CC5)CC4)C(F)(F)C3)c(F)c2)C(=O)N1 (stereo partly drawn) [Compound 500, trans-1′-(4-((2,6-dioxopiperidin-3-yl)amino)-2-fluorophenyl)-3′,3′-difluoro-N-(4-((5-fluoro-4-(3-(2-oxo-1,3-oxazinan-3-yl)phenyl)pyrimidin-2-yl)amino)cyclohexyl)-[1,4′-bipiperidine]-4-carboxamide] | < 500
O=C1CCC(Nc2ccc(N3CCC(N4CCC(C(=O)N[C@H]5CC[C@H](Nc6ncc(F)c(-c7cccc(N8CCOCC8=O)c7)n6)CC5)CC4)C(F)(F)C3)c(F)c2)C(=O)N1 (stereo partly drawn) [Compound 501, trans-1′-(4-((2,6-dioxopiperidin-3-yl)amino)-2-fluorophenyl)-3′,3′-difluoro-N-(4-((5-fluoro-4-(3-(3-oxomorpholino)phenyl)pyrimidin-2-yl)amino)cyclohexyl)-[1,4′-bipiperidine]-4-carboxamide] | < 500
O=C1CCC(Nc2ccc(N3CCC(N4CCC(C(=O)N[C@H]5CC[C@H](Nc6ncc(F)c(-c7cccc(C8CC8)c7)n6)CC5)CC4)C(F)C3)c(F)c2)C(=O)N1 (stereo partly drawn) [Compound 502, N-((1r,4r)-4-((4-(3-cyclopropylphenyl)-5-fluoropyrimidin-2-yl)amino)cyclohexyl)-1′-(4-((2,6-dioxopiperidin-3-yl)amino)-2-fluorophenyl)-3′-fluoro-[1,4′-bipiperidine]-4-carboxamide] | < 500
O=C1CCC(Nc2ccc(C3CCN([C@H]4CC[C@H](NC(=O)[C@H]5CC[C@H](Nc6ncc(F)c(-c7cccc(C8CC8)c7)n6)CC5)CC4)CC3)c(F)c2)C(=O)N1 (stereo partly drawn) [Compound 503, trans-4-((4-(3-cyclopropylphenyl)-5-fluoropyrimidin-2-yl)amino)-N-(trans-4-(4-(4-((2,6-dioxopiperidin-3-yl)amino)-2-fluorophenyl)piperidin-1-yl)cyclohexyl)cyclohexane-1-carboxamide] | < 500
O=C1CCC(Nc2ccc(N3CCC(N4CCC(C(=O)N[C@H]5CC[C@H](Nc6ncc(F)c(-c7cccc(C8CC8)c7)n6)CC5)CC4)CC3)c(F)c2)C(=O)N1 (stereo partly drawn) [Compound 504, trans-N-(4-((4-(3-cyclopropylphenyl)-5-fluoropyrimidin-2-yl)amino)cyclohexyl)-1′-(4-((2,6-dioxopiperidin-3-yl)amino)-2-fluorophenyl)-[1,4′-bipiperidine]-4-carboxamide] | < 500
Cn1nc(C2CCC(=O)NC2=O)c2ccc(N3CCN(CCN4CCC(C(=O)N[C@H]5CC[C@H](Nc6ncc(F)c(-c7cccc(-n8ccccc8=O)c7)n6)CC5)CC4)CC3)cc21 (stereo partly drawn) [Compound 506, trans-1-(2-(4-(3-(2,6-dioxopiperidin-3-yl)-1-methyl-1H-indazol-6-yl)piperazin-1-yl)ethyl)-N-((1r,4r)-4-((5-fluoro-4-(3-(2-oxopyridin-1(2H)-yl)phenyl)pyrimidin-2-yl)amino)cyclohexyl)piperidine-4-carboxamide] | < 500
Cn1nc(C2CCC(=O)NC2=O)c2ccc(C3CCN([C@H]4CC[C@H](CC(=O)N[C@H]5CC[C@H](Nc6ncc(F)c(-c7cccc(-n8ccccc8=O)c7)n6)CC5)CC4)CC3)cc21 (stereo partly drawn) [Compound 507, trans-2-((1r,4R)-4-(4-(3-(2,6-dioxopiperidin-3-yl)-1-methyl-1H-indazol-6-yl)piperidin-1-yl)cyclohexyl)-N-((1r,4R)-4-((5-fluoro-4-(3-(2-oxopyridin-1(2H)-yl)phenyl)pyrimidin-2-yl)amino)cyclohexyl)acetamide] | < 500
O=C1CCC(Nc2ccc(N3CCN([C@H]4CC[C@H](NC(=O)[C@H]5CC[C@H](Nc6ncc(F)c(-c7cccc(N8CCOCC8=O)c7)n6)CC5)CC4)CC3)c(F)c2)C(=O)N1 (stereo partly drawn) [Compound 508, trans-N-(trans-4-(4-(4-((2,6-dioxopiperidin-3-yl)amino)-2-fluorophenyl)piperazin-1-yl)cyclohexyl)-4-((5-fluoro-4-(3-(3-oxomorpholino)phenyl)pyrimidin-2-yl)amino)cyclohexane-1-carboxamide] | < 500
O=C1CCC(Nc2ccc(N3CCN([C@H]4CC[C@H](NC(=O)[C@H]5CC[C@H](Nc6ncc(F)c(-c7cccc(C(=O)N8CC[C@H](O)C8)c7)n6)CC5)CC4)CC3)c(F)c2)C(=O)N1 (stereo partly drawn) [Compound 509, trans-N-(trans-4-(4-(4-((2,6-dioxopiperidin-3-yl)amino)-2-fluorophenyl)piperazin-1-yl)cyclohexyl)-4-((5-fluoro-4-(3-((S)-3-hydroxypyrrolidine-1-carbonyl)phenyl)pyrimidin-2-yl)amino)cyclohexane-1-carboxamide] | < 500
O=C1CCC(Nc2ccc(C3CCN([C@H]4CC[C@H](NC(=O)[C@H]5CC[C@H](Nc6ncc(F)c(-c7cccc(C(=O)N8CC[C@H](O)C8)c7)n6)CC5)CC4)CC3)c(F)c2)C(=O)N1 (stereo partly drawn) [Compound 510, trans-N-(trans-4-(4-(4-((2,6-dioxopiperidin-3-yl)amino)-2-fluorophenyl)piperidin-1-yl)cyclohexyl)-4-((5-fluoro-4-(3-((S)-3-hydroxypyrrolidine-1-carbonyl)phenyl)pyrimidin-2-yl)amino)cyclohexane-1-carboxamide] | < 500
O=C1CCC(Nc2ccc(C3CCN([C@H]4CC[C@H](C(=O)N[C@H]5CC[C@H](Nc6ncc(F)c(-c7cccc(C(=O)N8CC[C@H](O)C8)c7)n6)CC5)CC4)CC3)c(F)c2)C(=O)N1 (stereo partly drawn) [Compound 511, trans-4-(4-(4-((2,6-dioxopiperidin-3-yl)amino)-2-fluorophenyl)piperidin-1-yl)-N-(trans-4-((5-fluoro-4-(3-((S)-3-hydroxypyrrolidine-1-carbonyl)phenyl)pyrimidin-2-yl)amino)cyclohexyl)cyclohexane-1-carboxamide] | < 500
Cn1nc(N2CCC(=O)NC2=O)c2cc(F)c(C3CCN([C@H]4CC[C@H](C(=O)N[C@H]5CC[C@H](Nc6ncc(F)c(-c7cccc(-n8ccccc8=O)c7)n6)CC5)CC4)CC3)cc21 [Compound 512, trans-4-(4-(3-(2,4-dioxotetrahydropyrimidin-1(2H)-yl)-5-fluoro-1-methyl-1H-indazol-6-yl)piperidin-1-yl)-N-(trans-4-((5-fluoro-4-(3-(2-oxopyridin-1(2H)-yl)phenyl)pyrimidin-2-yl)amino)cyclohexyl)cyclohexane-1-carboxamide] | < 500
O=C1CCC(Nc2ccc(N3CCN(CC4CCN(C(=O)[C@H]5CC[C@H](Nc6ncc(F)c(-c7cccc(N8CCCCC8)c7)n6)CC5)CC4)CC3)c(F)c2)C(=O)N1 (stereo partly drawn) [Compound 513, trans-3-((3-fluoro-4-(4-((1-(4-((5-fluoro-4-(3-(piperidin-1-yl)phenyl)pyrimidin-2-yl)amino)cyclohexane-1-carbonyl)piperidin-4-yl)methyl)piperazin-1-yl)phenyl)amino)piperidine-2,6-dione] | < 500
O=C1CC[C@H](Nc2ccc(C3CCN(CC4(O)CCN(C(=O)[C@H]5CC[C@H](Nc6ncc(F)c(-c7cccc(N8CCCCC8)c7)n6)CC5)CC4)CC3)c(F)c2)C(=O)N1 [Compound 514, trans-3-((3-fluoro-4-(1-((1-(4-((5-fluoro-4-(3-(piperidin-1-yl)phenyl)pyrimidin-2-yl)amino)cyclohexane-1-carbonyl)-4-hydroxypiperidin-4-yl)methyl)piperidin-4-yl)phenyl)amino)piperidine-2,6-dione] | < 500
O=C1CCC(Nc2ccc(C3CCN([C@H]4CC[C@H](NC(=O)[C@H]5CC[C@H](Nc6ncc(F)c(-c7cccc(N8CCCCC8)c7)n6)CC5)CC4)CC3)c(F)c2)C(=O)N1 (stereo partly drawn) [Compound 515, trans-N-(trans-4-(4-(4-((2,6-dioxopiperidin-3-yl)amino)-2-fluorophenyl)piperidin-1-yl)cyclohexyl)-4-((5-fluoro-4-(3-(piperidin-1-yl)phenyl)pyrimidin-2-yl)amino)cyclohexane-1-carboxamide] | < 500
O=C1CCC(Nc2ccc(N3CCC(N4CCC(C(=O)N[C@H]5CC[C@H](Nc6ncc(F)c(-c7cccc(N8CCCCC8)c7)n6)CC5)CC4)CC3)c(F)c2)C(=O)N1 (stereo partly drawn) [Compound 516, trans-1′-(4-((2,6-dioxopiperidin-3-yl)amino)-2-fluorophenyl)-N-(4-((5-fluoro-4-(3-(piperidin-1-yl)phenyl)pyrimidin-2-yl)amino)cyclohexyl)-[1,4′-bipiperidine]-4-carboxamide] | < 500
O=C1CC[C@H](Nc2ccc(N3CCN([C@H]4CC[C@H](C(=O)N[C@H]5CC[C@H](Nc6ncc(F)c(-c7cccc(-c8ccc[nH]c8=O)c7)n6)CC5)CC4)CC3)c(F)c2)C(=O)N1 [Compound 517, trans-4-(4-(4-(((S)-2,6-dioxopiperidin-3-yl)amino)-2-fluorophenyl)piperazin-1-yl)-N-((trans)-4-((5-fluoro-4-(3-(2-oxo-1,2-dihydropyridin-3-yl)phenyl)pyrimidin-2-yl)amino)cyclohexyl)cyclohexane-1-carboxamide] | < 500
O=C1CCC(Nc2ccc(C3CCN(CC4(O)CCN(C(=O)[C@H]5CC[C@H](Nc6ncc(F)c(-c7cccc(C8CC8)c7)n6)CC5)CC4)CC3)c(F)c2)C(=O)N1 (stereo partly drawn) [Compound 518, trans-3-((4-(1-((1-(4-((4-(3-cyclopropylphenyl)-5-fluoropyrimidin-2-yl)amino)cyclohexane-1-carbonyl)-4-hydroxypiperidin-4-yl)methyl)piperidin-4-yl)-3-fluorophenyl)amino)piperidine-2,6-dione] | < 500
